Among the data in PubChem BioAssay (NCI) are GI50 and TGI values, retold here.

Among the test systems are DU-145 prostate; EKVX NSCLC; HCC-2998 colon; MDA-MB-231 breast; NCI-H226 lung; OVCAR-4 ovarian; PC-3 prostate; SF-539 CNS; SK-OV-3 ovarian; SNB-75 CNS.
Experiment in all cases: growth of human tumour cells (NCI), 48 h

The structures appear in SMILES notation.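 Interpolation was linear, between the two tested concentrations surrounding the appropriate level; five concentrations were tested over 48 hours in 96-well plates. The concentration for 50% growth inhibition is given as GI50. TGI: concentration producing complete growth inhibition.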 Where only a bound is given, the exact number is not on record here.

As for `NC1=C(Cl)C(=O)c2ccc(S(N)(=O)=O)cc2C1=O`, the GI50 in the assay on DU-145 prostate was 132 nM; in the assay with EKVX NSCLC, 1530 nM; in the assay with HCC-2998 colon, 775 nM; with MDA-MB-231 breast it was 332 nM; in the assay on NCI-H226 lung, 231 nM; with OVCAR-4 ovarian it was 324 nM. The GI50 with PC-3 prostate is 314 nM; in the assay with SF-539 CNS, 200 nM; with SK-OV-3 ovarian, 1670 nM; with SNB-75 CNS, 144 nM. For the same molecule, the TGI is 273 nM with DU-145 prostate; 2910 nM in the assay with EKVX NSCLC; 2060 nM in the assay with HCC-2998 colon; 2700 nM in the assay with MDA-MB-231 breast; 595 nM with NCI-H226 lung; 1010 nM with OVCAR-4 ovarian. Besides, the TGI with PC-3 prostate amounted to 1500 nM; in the assay with SF-539 CNS it was 379 nM; in the assay on SK-OV-3 ovarian it was 3110 nM; with SNB-75 CNS it was 293 nM.
Regarding `O=C(O)C1NCCc2c1[nH]c1ccccc21` (stereo not given), the TGI with DU-145 prostate is greater than 10000 nM; in the assay on EKVX NSCLC, greater than 100000 nM; with HCC-2998 colon, greater than 100000 nM; in the assay with MDA-MB-231 breast it was greater than 10000 nM; with NCI-H226 lung, greater than 100000 nM; in the assay on OVCAR-4 ovarian it was greater than 100000 nM. The TGI was greater than 10000 nM in the assay with PC-3 prostate, greater than 100000 nM in the assay with SF-539 CNS, greater than 100000 nM with SK-OV-3 ovarian and greater than 100000 nM in the assay with SNB-75 CNS. The GI50 in the assay with HCC-2998 colon, with OVCAR-4 ovarian, with SF-539 CNS, in the assay on SK-OV-3 ovarian and in the assay on SNB-75 CNS was greater than 100000 nM in each case.
For the molecule `CN(C)CCCN(c1nc(C(Cl)(Cl)Cl)ns1)c1nc(C(Cl)(Cl)Cl)ns1`, the GI50 in the assay on DU-145 prostate is 2750 nM; in the assay with EKVX NSCLC, 3320 nM; in the assay on HCC-2998 colon, 1690 nM; with MDA-MB-231 breast it was 1190 nM; in the assay with NCI-H226 lung it was 1720 nM; in the assay with OVCAR-4 ovarian, 2210 nM. Besides, the GI50 in the assay with PC-3 prostate is 1940 nM; in the assay on SF-539 CNS, 1910 nM; in the assay on SK-OV-3 ovarian it was 1880 nM; in the assay on SNB-75 CNS it was 2170 nM. For the same molecule, the TGI is 6790 nM in the assay on DU-145 prostate; 13000 nM with EKVX NSCLC; 3310 nM in the assay with HCC-2998 colon; 2600 nM with MDA-MB-231 breast; 3420 nM in the assay on NCI-H226 lung; 5580 nM in the assay on OVCAR-4 ovarian. For the same molecule, the TGI in the assay with PC-3 prostate was found to be 5140 nM; with SF-539 CNS, 3800 nM; with SK-OV-3 ovarian it was 4000 nM; in the assay with SNB-75 CNS, 7890 nM.
On to `c1cc(OCCN2CCCCCC2)ccc1CNc1ccc2nc(CCC3CCCCC3)[nH]c2c1`, for which the GI50 in the assay with DU-145 prostate was 3900 nM; with EKVX NSCLC it was 2490 nM; in the assay on HCC-2998 colon, 1990 nM; with MDA-MB-231 breast, 1560 nM; in the assay on NCI-H226 lung, 1880 nM; in the assay with OVCAR-4 ovarian, 3200 nM. In addition, the GI50 with PC-3 prostate is 1940 nM; with SF-539 CNS it was 1630 nM; in the assay with SK-OV-3 ovarian, 2180 nM; in the assay on SNB-75 CNS, 1500 nM. The TGI in the assay with DU-145 prostate was found to be 14600 nM; with EKVX NSCLC it was 9580 nM; in the assay on HCC-2998 colon, 3980 nM; in the assay on MDA-MB-231 breast, 2970 nM; in the assay with NCI-H226 lung it was 5190 nM; in the assay with OVCAR-4 ovarian, 13800 nM. Also, the TGI in the assay with PC-3 prostate came out at 4840 nM; with SF-539 CNS, 3110 nM; in the assay with SK-OV-3 ovarian, 4840 nM; with SNB-75 CNS, 4520 nM.
As to `Cc1cccc2c(N=Nc3ccc(S(N)(=O)=O)cc3)c(O)[nH]c12`, the GI50 with DU-145 prostate, in the assay with EKVX NSCLC, with HCC-2998 colon, in the assay with MDA-MB-231 breast, with NCI-H226 lung and with OVCAR-4 ovarian was greater than 25000 nM each time. Further, the GI50 in the assay on PC-3 prostate, with SF-539 CNS, in the assay with SK-OV-3 ovarian and with SNB-75 CNS was greater than 25000 nM in each case. Besides, the TGI with DU-145 prostate, with EKVX NSCLC, in the assay on HCC-2998 colon, in the assay on MDA-MB-231 breast, with NCI-H226 lung and in the assay with OVCAR-4 ovarian was greater than 25000 nM in each case. The TGI in the assay with PC-3 prostate, in the assay on SF-539 CNS, with SK-OV-3 ovarian and in the assay with SNB-75 CNS was greater than 25000 nM each time.
As for `O=C1/C(=C\C(Cl)=C/c2ccc([N+](=O)[O-])cc2)SC(=S)N1CCc1ccc(O)cc1`, the GI50 with DU-145 prostate is 471 nM; in the assay with EKVX NSCLC, 940 nM; in the assay on HCC-2998 colon it was 392 nM; in the assay with MDA-MB-231 breast it was 449 nM; with NCI-H226 lung, 1350 nM; with OVCAR-4 ovarian it was 496 nM. Moreover, the GI50 in the assay with PC-3 prostate is 269 nM; in the assay with SF-539 CNS, 328 nM; in the assay on SK-OV-3 ovarian it was 2590 nM; with SNB-75 CNS it was 1080 nM. Also, the TGI amounted to 1720 nM with DU-145 prostate; 2210 nM in the assay on EKVX NSCLC; 1420 nM in the assay on HCC-2998 colon; 2030 nM in the assay on MDA-MB-231 breast; 3480 nM in the assay with NCI-H226 lung; 1800 nM with OVCAR-4 ovarian. Besides, the TGI was 845 nM in the assay with PC-3 prostate, 1120 nM in the assay with SF-539 CNS, 6420 nM in the assay with SK-OV-3 ovarian and 2350 nM with SNB-75 CNS.
On to `C=C1C(=O)O[C@@H]2C(=O)[C@@H](C)[C@@H]3C=CC(=O)[C@@]3(C)[C@@H](OC(=O)/C(C)=C\C)[C@H]12`, for which the TGI in the assay on DU-145 prostate amounted to 3500 nM; in the assay with EKVX NSCLC, 2530 nM; in the assay on HCC-2998 colon it was 3230 nM; in the assay with MDA-MB-231 breast, 3600 nM; with NCI-H226 lung, 8360 nM; in the assay on OVCAR-4 ovarian, 18200 nM. The TGI in the assay with PC-3 prostate came to 6040 nM; in the assay with SF-539 CNS it was 5110 nM; with SK-OV-3 ovarian, 26900 nM; with SNB-75 CNS it was 19900 nM.
